Measured values published in BigSolDB 2.1.

O=P(NCc1ccccc1)(Oc1ccccc1)Oc1ccccc1
solubility (mole fraction)
Details	in THF	in acetone	in acetonitrile	in chloroform	in dichloromethane	in ethyl acetate	in methanol	in methyl acetate	in toluene
288.15 K	–	–	–	0.095	0.055	–	–	0.0168	–
293.15 K	0.0978	0.0447	0.0148	0.109	0.0724	0.0199	0.0111	0.0234	0.0109
298.15 K	0.115	0.0587	0.0196	0.126	0.0965	0.0279	0.0158	0.0309	0.016
303.15 K	0.132	0.0741	0.0264	0.143	0.126	0.0368	0.0231	0.0407	0.0228
308.15 K	0.157	0.0986	0.0344	0.164	0.157	0.0484	0.0322	0.055	0.0312
313.15 K	0.183	0.122	0.0431	0.191	–	0.0627	0.0449	0.0699	0.0428
318.15 K	0.208	0.154	0.0591	0.218	–	0.0824	0.0629	0.094	0.0574
323.15 K	0.24	0.198	0.0742	0.248	–	0.104	0.0875	0.122	0.0814
328.15 K	–	–	0.0948	0.275	–	0.137	0.125	–	0.108
333.15 K	–	–	0.122	–	–	0.182	0.166	–	0.146
338.15 K	–	–	0.155	–	–	–	–	–	0.187
343.15 K	–	–	–	–	–	–	–	–	0.243
